Data reported in ChEMBL document CHEMBL2074518, “Multiple systems for the biliary excretion of organic anions in rats: liquiritigenin conjugates as model compounds” (J Pharmacol Exp Ther, 1994).

Columns and labels:
[1] = target: T1, ATP-binding cassette sub-family C member 2 (Rattus norvegicus, UniProt Q63120); experiment: TP_TRANSPORTER: biliary excretion in SD rat; assay type: functional, organism-based, Sprague-Dawley, Bile; details: in vivo
[2] = target: T1, ATP-binding cassette sub-family C member 2; experiment: TP_TRANSPORTER: biliary excretion in EHBR rat; assay type: functional, organism-based, Bile; details: in vivo

T1 sequence (Q63120 whole entry): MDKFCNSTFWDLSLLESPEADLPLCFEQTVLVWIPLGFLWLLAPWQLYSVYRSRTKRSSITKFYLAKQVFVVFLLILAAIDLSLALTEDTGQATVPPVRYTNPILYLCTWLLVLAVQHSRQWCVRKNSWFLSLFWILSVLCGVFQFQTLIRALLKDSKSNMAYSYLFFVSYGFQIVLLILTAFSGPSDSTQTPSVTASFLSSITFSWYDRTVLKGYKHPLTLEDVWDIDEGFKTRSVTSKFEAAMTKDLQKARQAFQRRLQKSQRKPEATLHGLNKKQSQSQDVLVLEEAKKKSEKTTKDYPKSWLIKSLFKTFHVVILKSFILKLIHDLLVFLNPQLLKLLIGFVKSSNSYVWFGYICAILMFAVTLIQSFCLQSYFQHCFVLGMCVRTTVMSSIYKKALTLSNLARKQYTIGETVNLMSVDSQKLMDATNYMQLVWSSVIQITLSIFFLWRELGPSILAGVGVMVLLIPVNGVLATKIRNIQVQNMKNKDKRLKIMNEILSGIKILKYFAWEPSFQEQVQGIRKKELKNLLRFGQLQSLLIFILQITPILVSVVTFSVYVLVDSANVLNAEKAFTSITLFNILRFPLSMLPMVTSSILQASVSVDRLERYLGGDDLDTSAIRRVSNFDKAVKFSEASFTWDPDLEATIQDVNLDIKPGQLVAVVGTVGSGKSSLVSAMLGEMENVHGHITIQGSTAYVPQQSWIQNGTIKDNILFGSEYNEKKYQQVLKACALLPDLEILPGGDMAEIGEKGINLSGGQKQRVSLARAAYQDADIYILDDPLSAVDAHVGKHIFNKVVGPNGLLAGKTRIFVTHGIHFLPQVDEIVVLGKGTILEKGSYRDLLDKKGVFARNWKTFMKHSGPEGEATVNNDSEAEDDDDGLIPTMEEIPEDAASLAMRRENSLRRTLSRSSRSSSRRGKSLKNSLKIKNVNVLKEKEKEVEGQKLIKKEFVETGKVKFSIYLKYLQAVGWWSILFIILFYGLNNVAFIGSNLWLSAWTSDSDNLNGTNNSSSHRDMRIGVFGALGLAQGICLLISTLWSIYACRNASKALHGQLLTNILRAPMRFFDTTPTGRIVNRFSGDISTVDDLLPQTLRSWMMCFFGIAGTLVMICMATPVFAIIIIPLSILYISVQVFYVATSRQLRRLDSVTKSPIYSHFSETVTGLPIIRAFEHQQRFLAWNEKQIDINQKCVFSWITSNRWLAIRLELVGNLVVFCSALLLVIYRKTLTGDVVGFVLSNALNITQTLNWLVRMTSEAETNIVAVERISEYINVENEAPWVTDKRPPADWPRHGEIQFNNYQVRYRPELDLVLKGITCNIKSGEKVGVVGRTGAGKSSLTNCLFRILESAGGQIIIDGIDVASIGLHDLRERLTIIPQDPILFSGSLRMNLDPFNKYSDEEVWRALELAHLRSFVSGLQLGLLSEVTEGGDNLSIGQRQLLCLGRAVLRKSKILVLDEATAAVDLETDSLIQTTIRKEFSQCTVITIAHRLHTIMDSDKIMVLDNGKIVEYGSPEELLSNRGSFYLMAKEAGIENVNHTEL

Activity [1]: substrate [+]
Activity [2]: substrate [+]
SMILES: O=C1CC(c2ccc(O[C@@H]3O[C@H](C(=O)O)[C@@H](O)[C@H](O)[C@H]3O)cc2)Oc2cc(O)ccc21 (some centres not stated) [LIQUIRTIGENIN GLUCURONIDE]
